Data on five substances can be found in patent publication US4415546A, “Biologically active analogs of ACTH and radioimmuno assay therefor” (priority 1981, dated 1983).

Where two headings read alike, the source gives them in different places. No end group written: not given here.

One experiment addresses ACTH antiserum. The experiment can be described thus: standard radioimmunoassay, displacement of [125I]-Tyr23,Phe2,Nle4-ACTH (1-38) from ACTH antiserum. It is filed as binding, rabbit. How it is done: Standard radioimmunoassays were performed as follows: Unlabeled ACTH or other peptides in a volume of 50 μl were mixed with 50 μl antiserum and 50 μl Protein A immunoprecipitant washed as described above. All components were prepared in assay buffer and incubated at 4° for 24 hr. […] One ml of assay buffer was added and the tubes were processed as described above for counting in the Beckman 4000 counter.
A general note: Displacement assays read how much labelled ligand stays bound in the presence of the test substance.

A further experiment has as its target ACTH antiserum 46-1. Nature of the experiment: saturation curves of ACTH antiserum with labeled ACTH. It is filed as binding, rabbit. The method, then:
Varying amounts of labeled ACTH were incubated with the antiserum at a final dilution of 1:58,000 in a total volume of 200 μl for 2 hr. at room temperature. Blanks containing no antiserum were included for each point.
25 μl of this washed protein A immunoprecipitant was added and the incubation was continued at 4° for 18 hr. One ml of assay buffer at 4° was added to a series of tubes and the tubes were then centrifuged at 2500 rpm for 15 min in a Beckman model TJ-6 refrigerated centrifuge.
The tubes containing [^3 H]-ACTH were processed similarly, drained, wiped and then 0.5 ml 0.1 N NaOH was added. The tubes were stirred on a Vortex mixer for 20 sec. and incubated at 37° for 30 min. An aliquot (0.4 ml) of the NaOH extract was mixed with phase combininhg scintillant (PCS, Amersham) and counted in a Packard PRIAS scintillation counter.

Experiment [1] has as its system isolated rat adrenocortical cells. The experiment can be described thus: isolated rat adrenocortical cell assay (corticosterone production). It is filed as cell-based.
Another experiment concerns steroidogenesis. The conditions noted are these: literature values; cited from earlier work.
Setting [2] is: isolated rat adrenocortical cells, result in words.

In the case of “H-Ser^1 -Tyr-Ser-Met-Glu^5 -His-Phe-Arg-Trp-Gly^10 -Lys-Pro-Val-Gly-Lys^15 -Lys-Arg-Arg-Pro-Val^20 -Lys-Val-Tyr-Pro-Asn^25 -Gly-Ala-Glu-Asp-Glu^30 -Ser-Ala-Glu-Ala-Phe^35 -Pro-Leu-Glu-Phe^39 -Oh [ACTH]”, on ACTH antiserum (preincubation of the antiserum with the competing peptide, read-out: value for 50% displacement of radioligand), the IC50 came to 0.0203 ± 0.0033 nM. Moreover, the “equivalents of unlabeled hormone for 50% displacement of the radioligand” value was “less than one equivalent” in the experiment on ACTH antiserum (under the preincubation conditions) and “one equivalent” in the experiment with ACTH antiserum (without preincubation). Moreover, the Kd at ACTH antiserum 46-1 (from saturation curves, antiserum dilution 1:58,000, read-out: apparent dissociation constant for the interaction with antiserum 46-1) worked out at 0.096 ± 0.016 nM.

As for Phe^2, Nle^4 -ACTH-(1-38), in experiment [1] (setting [2]), the “maximal stimulation of corticosterone production compared with human ACTH” value is “same maximal degree as human ACTH” and the “steroidogenic potency compared with ACTH” value is recorded as “as potent as ACTH”.

With “[^125 I]-Tyr^23,Phe^2,Nle^4 -ACTH (1-38)”, the Kd on ACTH antiserum 46-1 (saturation binding, no preincubation, read-out: concentration needed for half-maximal binding of the radioligand) came to 0.096 ± 0.016 nM. Also, in experiment [1] (corticosterone production, 37° for 1 hr, non-linear least squares analysis, read-out: concentration required for half maximal stimulation of steroidogenesis), the EC50 worked out at 0.0407 ± 0.0069 nM. For the same substance, in experiment [1] (setting [2]), the “steroidogenic potency compared with ACTH” value is on record as “indistinguishable from that of ACTH”.

With “[^125 I]ACTH: 125I labelled natural ACTH prepared by a lactoperoxidase process (McIlhinney and Schulster) (SYSMEHFRWGKPVGKKRRPVKVYPNGAEDESAEAFPLEF; also: 125I label (lactoperoxidase); UniProt P01189 138-176, looked up)”, the “steroidogenic activity / potency relative to natural ACTH” value in the experiment on steroidogenesis is 50%.

Take “monoiodo Tyr^23,Phe^2,Nle^4 -ACTH (1-38)”: the “displacement curve compared with ACTH” value in the experiment with ACTH antiserum (result in words) is recorded as “identical”. The “steroidogenic potency compared with ACTH” value in experiment [1] (setting [2]) is “equipotent with ACTH”.
